# Read-outs that look alike come from different tables or passages of the source.
# Tests used:
# [1] = system: albumin; test: Albumin denaturation studies
# Protocol: The synthesized compounds were evaluated for the inhibition of albumin denaturation. Test tubes containing 1 mL of albumin solution (1% w/v in phosphate buffer pH=7.4), buffer, and 20 μL of the tested compounds dissolved in DMSO are incubated at 37°C for 15 minutes (final concentration 100 µM). The incubation follows at 60°C for another 15 minutes to induce albumin denaturation. The samples are cooled to room temperature. Their absorbance was measured at 660 nm. DMSO was used as a blank solution and acetylsalicylic acid as a reference compound. The results are given in Table S1 in the supplementary material.
# Protein denaturation has correlated well with the inflammatory response, leading to various inflammatory diseases. It is known that tissue injury during life might refer to the denaturation of cells' protein constituents or intercellular substances. […] Many anti-inflammatory drugs can inhibit the heat-coagulation of serum albumin [78]. Thus, the inhibition of albumin heat-coagulation activity of the designed molecules was examined in vitro [60] as a measure of their anti-inflammatory activity. The experimental results were compared to the standard drug, acetylsalicylic acid. […] The results are given in Table S1 in the supplementary material.
# [2] = target: T1, soybean lipoxygenase (LOX-1) (Glycine max, UniProt P08170); test: Soybean lipoxygenase inhibition study; format: biochemical; conditions: for LOX inhibition (%): % inhibition at 100 µM
# T1 construct: purchased Sigma Chemical, Co. (St Louis, MO, USA)
# T1 sequence (P08170 1-839): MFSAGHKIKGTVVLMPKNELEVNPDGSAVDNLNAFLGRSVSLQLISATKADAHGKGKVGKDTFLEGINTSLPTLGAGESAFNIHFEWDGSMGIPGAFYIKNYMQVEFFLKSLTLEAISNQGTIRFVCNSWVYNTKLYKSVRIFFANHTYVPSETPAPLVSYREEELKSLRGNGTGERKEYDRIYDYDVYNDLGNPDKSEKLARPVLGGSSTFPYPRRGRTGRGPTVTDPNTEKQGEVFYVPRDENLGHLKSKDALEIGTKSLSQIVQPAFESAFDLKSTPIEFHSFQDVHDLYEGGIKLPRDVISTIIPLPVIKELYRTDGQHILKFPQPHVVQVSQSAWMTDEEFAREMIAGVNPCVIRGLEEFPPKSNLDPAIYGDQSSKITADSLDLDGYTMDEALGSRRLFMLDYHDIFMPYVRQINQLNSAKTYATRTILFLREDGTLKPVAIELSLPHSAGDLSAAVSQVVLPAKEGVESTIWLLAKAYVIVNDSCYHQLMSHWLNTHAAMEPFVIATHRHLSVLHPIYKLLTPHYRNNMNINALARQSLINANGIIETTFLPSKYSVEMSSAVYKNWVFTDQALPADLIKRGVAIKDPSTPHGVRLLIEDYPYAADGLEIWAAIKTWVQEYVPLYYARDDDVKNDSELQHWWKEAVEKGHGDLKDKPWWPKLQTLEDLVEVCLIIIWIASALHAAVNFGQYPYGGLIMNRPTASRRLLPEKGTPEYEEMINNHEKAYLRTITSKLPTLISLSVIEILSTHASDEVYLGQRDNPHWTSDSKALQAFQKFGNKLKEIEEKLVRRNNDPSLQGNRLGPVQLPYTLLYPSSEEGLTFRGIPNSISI
# Protocol: Our group evaluated an in vitro study as reported previously. The tested hybrids were incubated at room temperature with sodium linoleate (100 µM) and 200 µL of enzyme solution (1/9 X 10^-4 w/v in saline). […] Different concentrations were used for the determination of IC50. A blank determination was used as a negative control.
# Due to the limited work on sufficiently purified human ALOX-5 isoenzyme, most of the published research was performed on the soybean homolog. […] This study used the soybean isoenzyme LOX-1, which exerts maximal activity at pH 9.0 [72].
# [3] = target: T2, ovine COX-2 (Ovis aries, UniProt P79208); test: Cyclooxygenase-2 inhibition study; format: biochemical; conditions: for IC50: read-out: COX-2 inhibition (IC50); for COX-2 inhibition (%): % inhibition at 100 µM
# T2 construct: purchased Cayman (USA)
# T2 sequence (P79208 17-603): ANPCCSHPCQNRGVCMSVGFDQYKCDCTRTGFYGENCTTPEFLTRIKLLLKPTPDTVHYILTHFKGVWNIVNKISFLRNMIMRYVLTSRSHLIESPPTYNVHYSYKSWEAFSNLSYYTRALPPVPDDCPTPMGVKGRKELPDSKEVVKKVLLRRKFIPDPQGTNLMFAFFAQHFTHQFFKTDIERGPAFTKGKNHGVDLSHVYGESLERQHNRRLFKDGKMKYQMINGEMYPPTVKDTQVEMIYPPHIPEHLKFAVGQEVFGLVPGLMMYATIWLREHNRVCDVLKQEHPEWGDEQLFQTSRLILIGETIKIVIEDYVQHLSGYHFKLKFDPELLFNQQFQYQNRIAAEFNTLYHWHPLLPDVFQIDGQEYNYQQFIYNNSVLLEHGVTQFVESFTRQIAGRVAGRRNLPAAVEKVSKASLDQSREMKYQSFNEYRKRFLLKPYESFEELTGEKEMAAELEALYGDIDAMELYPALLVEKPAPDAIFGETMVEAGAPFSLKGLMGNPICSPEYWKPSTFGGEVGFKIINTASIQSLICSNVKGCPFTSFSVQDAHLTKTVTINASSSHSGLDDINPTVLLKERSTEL
# Protocol: The in vitro study of cyclooxygenase (COX) activity was determined by using arachidonic acid (AA) as the substrate and N,N,N’,N’-tetramethylphenylenediamine (TMPD) as the co-substrate. […] The absorption due to the spontaneous oxidation of TMPD was subtracted from the initial rate of oxidation observed in the presence of AA. […] A blank determination was used first to serve as a negative control. Indomethacin was used as a reference COX-2 inhibitor (positive control).
# The role of COX-2 in neurodegenerative diseases has been reported, and COX-2 inhibition is considered of high importance as a therapeutic tool. The designed derivatives were tested for their COX-2 inhibition activity on the ovine COX-2 enzyme. […] Indomethacin was used as a reference compound.
# [4] = cited from earlier work
# [5] = Inhibition of linoleic acid peroxidation (AAPH-induced)
# Protocol: Our group evaluated the in vitro study as reported previously. Ten 16 mM sodium linoleate solution microliters were added to the UV cuvette containing 93 µL of a 0.05 M phosphate buffer, pH 7.4, and 10 µL of the tested compounds (final concentration 100 µM). The oxidation reaction started at 37 °C under air by adding 50 µL of the free radical initiator AAPH (40 mM). Oxidation was carried out and monitored at 234 nm. DMSO under the same conditions was used as a negative control. Trolox was used as the appropriate standard (positive control). The results are given in Table S1 in the supplementary material.
# We used the water-soluble 2, 2’-azobis(2-amidinopropane) hydrochloride (AAPH) to generate in vitro peroxyl radicals through spontaneous thermal decomposition, which resembles cellular lipid peroxidation due to the activity of the undertaken radicals. The anti-lipid peroxidation activities were compared to a well-known antioxidant, i.e., Trolox (Table S1 in the supplementary material). […] In general, the anti-lipid peroxidation ranged from 8-99%. Except for acids 11, 12, 17, 19, 21, 22, 24, 25, and 28, which present high antioxidant activities (on the high % level), the other cinnamic acids present low or medium activity.
# [6] = read-out: LOX inhibition (IC50)
SMILES,inhibition at 100 µM [3] [%],"AAPH inhibition (%, at 100 µM) [4] [%]","AAPH inhibition (%, at 100 µM) [5] [%]",LOX inhibition (%) [2] [%],IC50 [3] [µM],other results
"CC(=O)Oc1ccccc1C(=O)O [Aspirin, acetylsalicylic acid, reference compound]",,,,,,"Albumin denaturation (%, at 100 µM) [1]: 31.2%"
O=C(O)/C=C/c1ccc(OCc2ccc(Br)cc2)cc1 [Compound 11],17,84,,,,IC50 [2]: 100 µM
O=C(O)/C=C/c1cccc(Oc2ccccc2)c1 [Compound 12],39,84,,,,
CCOC(=O)CNC(=O)/C=C/c1cccc(Oc2ccccc2)c1 [Compound 12a],,,48,36,55,
O=C(O)/C=C/c1ccc(C(F)(F)F)cc1 [Compound 13],32,,37,,,inhibition at 100 µM ([2]; read-out: LOX inhibition (%)): 42%
COC(=O)CC[C@H](NC(=O)/C=C/c1cccc2ccccc12)C(=O)OC [Compound 17c],,,57,,62,"IC50 [2, 6]: 68 µM"
COc1ccc(/C=C/C(=O)O)cc1OC [Compound 18],19,86,,,,
CCOC(=O)CNC(=O)/C=C/c1ccc(OC)c(OC)c1 [Compound 18a],,,99,,,"IC50 [2, 6]: 62.5 µM; COX-2 inhibition (%) [3]: 14%"
COc1ccc(OC)c(/C=C/C(=O)O)c1 [Compound 19],28,,88,,,"IC50 [2, 6]: 60 µM"
CCOC(=O)CNC(=O)/C=C/c1ccc2c(c1)OCO2 [Compound 20a],,,70,6,75,
O=C(O)/C=C/c1cccs1 [Compound 21],,60,,,,
CCOC(=O)CNC(=O)/C=C/c1cccs1 [Compound 21a],,,15,20,55,
COC(=O)CCCNC(=O)/C=C/c1cccs1 [Compound 21b],,,73,0,,COX-2 inhibition (%) [3]: 38%
"O=C(O)/C=C/c1ccccc1 [Compound 22, cinnamic acid]",4,78,,,,
CCOC(=O)CNC(=O)/C=C/c1ccccc1 [Compound 22a],,,5,0,5,
COC(=O)CC[C@H](NC(=O)/C=C/C=C/c1ccccc1)C(=O)OC [Compound 23c],,,25,,,"IC50 [2, 6]: 75 µM; COX-2 inhibition (%) [3]: 47%"

# Source: article PMC11348465, “Pharmacochemical Study of Multitarget Amino Acids’ Hybrids: Design, Synthesis, In vitro, and In silico Studies” (Medicinal Chemistry (Shariqah (United Arab Emirates), 2024)
